Laboratory results from ChEMBL document CHEMBL5352396, “Synthesis and biological evaluation of novel FiVe1 derivatives as potent and selective agents for the treatment of mesenchymal cancers” (Eur J Med Chem, 2022).
In brackets after ≈: the same amount, converted by molar mass. Activity calls are given as the source filed them. The calls are words filed in the database; no cut-off is given here.

Key:
MCF7 = assay: cells; conditions: Homo sapiens, MCF7, 72 h
HT-1080 = assay: cells; conditions: Homo sapiens, HT-1080, 72 h
GCT = assay: cells; conditions: Homo sapiens, 72 h
RD = assay: cells; conditions: Homo sapiens, 72 h
[1] = Kinetic solubility of the compound in DPBS buffer at pH 7.4 incubated for 16 hrs under shaking condition by HPLC analysis; assay type: physicochemical; conditions: read-out: Kinetic_solubility
[2] = AUC (0 to last) in mouse at 1 mg/kg, ip by LC-MS/MS analysis; assay type: ADME, organism-based; set-up: dose 1 mg/kg, route ip; conditions: in vivo
[3] = Tmax in mouse at 10 mg/kg, po by LC-MS/MS analysis; assay type: ADME, organism-based; conditions: in vivo
[4] = Tmax in mouse at 1 mg/kg, ip by LC-MS/MS analysis; assay type: ADME, organism-based; conditions: in vivo
[5] = Metabolic stability in CD-1 mouse liver microsomes assessed as parent compound remaining at 100 uM measured after 60 mins in presence of NADPH by LC-MS/MS analysis; assay type: ADME, Microsome; conditions: read-out: Stability
[6] = Tlast in mouse at 1 mg/kg, ip by LC-MS/MS analysis; assay type: ADME, organism-based; conditions: in vivo
[7] = Metabolic stability in CD-1 mouse liver microsomes assessed as half life at 100 uM measured upto 60 mins in presence of NADPH by LC-MS/MS analysis; assay type: ADME, Microsome; conditions: for t1/2: mouse, microsomes, 1 h, 100 µM
[8] = AUC (0 to infinity) in mouse at 10 mg/kg, po by LC-MS/MS analysis; assay type: ADME, organism-based; set-up: dose 10 mg/kg, route po; conditions: in vivo
[9] = AUC (0 to infinity) in mouse at 1 mg/kg, ip by LC-MS/MS analysis; assay type: ADME, organism-based; set-up: dose 1 mg/kg, route ip; conditions: in vivo
Vimentin (Homo sapiens) [10] = molecular target: Vimentin (Homo sapiens) (UniProt P08670); assay: Induction of Vimentin phosphorylation in human HT-1080 cells at 100 nM incubated for 24 hrs by Western blot analysis; assay type: cell-based; conditions: filed as activator
Vimentin (Homo sapiens), sequence (P08670 whole entry): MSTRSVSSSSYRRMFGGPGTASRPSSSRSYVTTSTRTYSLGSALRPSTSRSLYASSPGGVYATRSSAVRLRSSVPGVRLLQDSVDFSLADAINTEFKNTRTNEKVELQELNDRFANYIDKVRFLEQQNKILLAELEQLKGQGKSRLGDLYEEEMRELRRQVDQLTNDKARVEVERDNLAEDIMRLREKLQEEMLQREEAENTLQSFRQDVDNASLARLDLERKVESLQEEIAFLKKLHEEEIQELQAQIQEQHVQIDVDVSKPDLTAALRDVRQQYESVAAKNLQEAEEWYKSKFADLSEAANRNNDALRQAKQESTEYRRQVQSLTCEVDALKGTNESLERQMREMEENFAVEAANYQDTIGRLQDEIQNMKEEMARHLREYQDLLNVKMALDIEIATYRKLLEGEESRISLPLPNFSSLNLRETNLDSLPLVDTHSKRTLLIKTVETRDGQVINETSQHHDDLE

[11] = Oral bioavailability in mouse at 10 mg/kg by LC-MS/MS analysis; assay type: ADME, organism-based; conditions: in vivo
[12] = Half life in mouse at 1 mg/kg, ip by LC-MS/MS analysis; assay type: ADME, organism-based; conditions: in vivo
Vimentin (Homo sapiens) [13] = molecular target: Vimentin (Homo sapiens) (UniProt P08670); assay: Induction of Vimentin phosphorylation in human GCT cells at 100 nM incubated for 24 hrs by Western blot analysis; assay type: cell-based; conditions: filed as activator
[14] = Cmax in mouse at 10 mg/kg, po by LC-MS/MS analysis; assay type: ADME, organism-based; set-up: dose 10 mg/kg, route po; conditions: in vivo
[15] = Cmax in mouse at 1 mg/kg, ip by LC-MS/MS analysis; assay type: ADME, organism-based; set-up: dose 1 mg/kg, route ip; conditions: in vivo
[16] = Metabolic stability in CD-1 mouse liver microsomes assessed as intrinsic clearance at 100 uM measured upto 60 mins in presence of NADPH by LC-MS/MS analysis; assay type: ADME, Microsome; conditions: for microsomal intrinsic clearance: mouse, microsomes, 1 h, 100 µM
[17] = AUC (0 to last) in mouse at 10 mg/kg, po by LC-MS/MS analysis; assay type: ADME, organism-based; set-up: dose 10 mg/kg, route po; conditions: in vivo
[18] = Tlast in mouse at 10 mg/kg, po by LC-MS/MS analysis; assay type: ADME, organism-based; conditions: in vivo
[19] = Half life in mouse at 10 mg/kg, po by LC-MS/MS analysis; assay type: ADME, organism-based; conditions: in vivo
Vimentin (Homo sapiens) [20] = molecular target: Vimentin (Homo sapiens) (UniProt P08670); assay: Induction of Vimentin phosphorylation in human RD cells at 100 nM incubated for 24 hrs by Western blot analysis; assay type: cell-based; conditions: filed as activator
Vimentin (Homo sapiens) [21] = molecular target: Vimentin (Homo sapiens) (UniProt P08670); assay: Induction of Vimentin phosphorylation in human GCT cells at 1 uM incubated for 24 hrs by Western blot analysis; assay type: cell-based
Vimentin (Homo sapiens) [22] = molecular target: Vimentin (Homo sapiens) (UniProt P08670); assay: Induction of Vimentin phosphorylation in human HT-1080 cells at 1 uM incubated for 24 hrs by Western blot analysis; assay type: cell-based
Vimentin (Homo sapiens) [23] = molecular target: Vimentin (Homo sapiens) (UniProt P08670); assay: Induction of Vimentin phosphorylation in human RD cells at 1 uM incubated for 24 hrs by Western blot analysis; assay type: cell-based

| Compound | IC50 (MCF7) | IC50 (HT-1080) | IC50 (GCT) | IC50 (RD) | other results |
| --- | --- | --- | --- | --- | --- |
| Clc1cccc(N2CCN(c3cnnc4ccccc34)CC2)c1 | > 20 µM | > 20 µM | > 20 µM | > 20 µM | – |
| CN(C)CCCOc1cc(Cl)cc(N2CCN(c3cnnc4c(Cl)cccc34)CC2)c1 | 4.56 µM | 2.72 µM | – | 3.69 µM | solubility kinetic at 16 h [1]: 48 µM (≈ 22.1 µg/mL) |
| COC(COc1cc(Cl)cc(N2CCN(c3cnnc4c(Cl)cccc34)CC2)c1)OC | > 20 µM | – | 2.93 µM | 19.1 µM | solubility kinetic at 16 h [1]: < 1 µM |
| COc1cccc2c(N3CCN(c4cccc(Cl)c4)CC3)cnnc12 | > 20 µM | > 20 µM | > 20 µM | > 20 µM | – |
| Clc1cccc(N2CCCN(c3cnnc4c(Cl)cccc34)CC2)c1 | > 20 µM | > 20 µM | > 20 µM | > 20 µM | – |
| Oc1cc(Cl)cc(N2CCN(c3cnnc4c(Cl)cccc34)CC2)c1 | 12.1 µM | 0.086 µM | 0.057 µM | 0.083 µM | – |
| Oc1cc(O)cc(N2CCN(c3cnnc4c(Cl)cccc34)CC2)c1 | > 20 µM | 0.956 µM | 0.656 µM | 1.28 µM | – |
| CC(=O)Nc1cc(Cl)cc(N2CCN(c3cnnc4c(Cl)cccc34)CC2)c1 | > 20 µM | 10.8 µM | 10.8 µM | 7.41 µM | – |
| COc1ccc2c(N3CCN(c4cccc(Cl)c4)CC3)cnnc2c1Cl | > 20 µM | > 20 µM | > 20 µM | > 20 µM | – |
| Nc1cc(Cl)cc(N2CCN(c3cnnc4c(Cl)cccc34)CC2)c1 | > 20 µM | 0.647 µM | 0.498 µM | 1.32 µM | – |
| N#Cc1cc(Cl)cc(N2CCN(c3cnnc4c(Cl)cccc34)CC2)c1 | > 20 µM | 0.378 µM | 0.189 µM | 0.402 µM | – |
| COCCOc1cc(Cl)cc(N2CCN(c3cnnc4c(Cl)cccc34)CC2)c1 | > 20 µM | 1.7 µM | 1.06 µM | 1.35 µM | solubility kinetic at 16 h [1]: < 1 µM |
| COc1cc(Cl)cc(N2CCN(c3cnnc4c(Cl)cccc34)CC2)c1 | 11.2 µM | 0.044 µM | 0.049 µM | 0.061 µM | AUC(0-t) [2]: 208 ng·h/mL; Tmax [3]: 40.2 min; Tmax [4]: 15 min; remaining at 1 h, 100 µM [5]: 0%; Tlast [6]: 18 h; t1/2 [7]: 1.7 min; AUC(0-inf) [8]: 534 ng·h/mL; AUC(0-inf) [9]: 211 ng·h/mL; Activity (Vimentin (Homo sapiens) [10]): Active; F [11]: 25%; half-life [12]: 35.4 min; Activity (Vimentin (Homo sapiens) [13]): Active; Cmax [14]: 155 ng/mL; Cmax [15]: 197 ng/mL; microsomal intrinsic clearance [16]: 805.3 µL/min/mg; AUC(0-t) [17]: 371 ng·h/mL; Tlast [18]: 8 h; half-life [19]: 281 min; Activity (Vimentin (Homo sapiens) [20]): Active |
| Clc1cccc(N2CC3CC2CN3c2cnnc3c(Cl)cccc23)c1 (configuration not stated) | > 20 µM | 3.23 µM | 8.86 µM | 5.6 µM | – |
| OCCOc1cc(Cl)cc(N2CCN(c3cnnc4c(Cl)cccc34)CC2)c1 | > 20 µM | 0.5 µM | 0.667 µM | 0.407 µM | remaining at 1 h, 100 µM [5]: 10.5%; t1/2 [7]: 19.1 min; microsomal intrinsic clearance [16]: 72.5 µL/min/mg; solubility kinetic at 16 h [1]: 13 µM (≈ 5.45 µg/mL) |
| OC(O)COc1cc(Cl)cc(N2CCN(c3cnnc4c(Cl)cccc34)CC2)c1 | – | – | – | – | remaining at 1 h, 100 µM [5]: 35.7%; half-life at 100 µM ([7]; CD-1, mouse, liver microsomes): 42.7 min; microsomal CLint at 100 µM ([16]; CD-1, mouse, liver microsomes, read-out: CLH): 32.5 µL/min/mg |
| Clc1cccc(N2C[C@@H]3CN(c4cnnc5c(Cl)cccc45)C[C@@H]3C2)c1 | > 20 µM | > 20 µM | > 20 µM | > 20 µM | – |
| Clc1cccc(C2CCN(c3cnnc4c(Cl)cccc34)CC2)c1 | > 20 µM | > 20 µM | > 20 µM | > 20 µM | – |
| Clc1cccc(N2C[C@H]3CC[C@@H](C2)N3c2cnnc3c(Cl)cccc23)c1 | > 20 µM | 5.57 µM | 4.03 µM | 6.15 µM | – |

| Compound | IC50 (MCF7) | IC50 (HT-1080) | IC50 (GCT) | IC50 (RD) | other results |
| --- | --- | --- | --- | --- | --- |
| Clc1cccc(N2CCN(c3ccnc4ccccc34)CC2)c1 | > 20 µM | > 20 µM | > 20 µM | > 20 µM | – |
| Fc1ccc(N2CCN(c3cnnc4c(Cl)cccc34)CC2)cc1Cl | – | – | – | – | remaining at 1 h, 100 µM [5]: 0.4%; t1/2 [7]: 6.7 min; microsomal intrinsic clearance [16]: 205.8 µL/min/mg |
| Clc1cccc(N2CCN(c3ccnnc3)CC2)c1 | > 20 µM | > 20 µM | > 20 µM | > 20 µM | – |
| C[C@H]1CN(c2cnnc3c(Cl)cccc23)CCN1c1cc(Cl)cc(Cl)c1 | > 20 µM | 1.15 µM | 1.27 µM | 1.07 µM | – |
| Fc1c(Cl)cc(N2CCN(c3cnnc4c(Cl)cccc34)CC2)cc1Cl | – | – | – | – | remaining at 1 h, 100 µM [5]: 29.6%; t1/2 [7]: 32.5 min; microsomal intrinsic clearance [16]: 42.6 µL/min/mg |
| NCCOc1cc(Cl)cc(N2CCN(c3cnnc4c(Cl)cccc34)CC2)c1 | > 20 µM | 3.89 µM | 3.55 µM | 4.58 µM | remaining at 1 h, 100 µM [5]: 78.7%; t1/2 [7]: > 145 min; microsomal intrinsic clearance [16]: < 9.6 µL/min/mg; solubility kinetic at 16 h [1]: 38 µM (≈ 15.9 µg/mL) |
| Clc1cc(N2CCCC2)cc(N2CCN(c3cnnc4c(Cl)cccc34)CC2)c1 | > 20 µM | > 20 µM | > 20 µM | > 20 µM | – |
| Clc1cc(Cl)cc(N2CCN(c3cnnc4c(Cl)cccc34)CC2)c1 | > 20 µM | 0.412 µM | 0.315 µM | 0.623 µM | – |
| COc1cccc(N2CCN(c3cnnc4c(Cl)cccc34)CC2)c1 | > 20 µM | 0.598 µM | 0.402 µM | 0.884 µM | – |
| Clc1cccc(N2CCN(c3cc(-c4ccccc4)ncn3)CC2)c1 | > 20 µM | > 20 µM | > 20 µM | > 20 µM | – |
| Clc1cc(OCCOC2CCCCO2)cc(N2CCN(c3cnnc4c(Cl)cccc34)CC2)c1 (configuration not stated) | > 20 µM | > 20 µM | > 20 µM | > 20 µM | solubility kinetic at 16 h [1]: < 1 µM |
| Clc1cc(OCCN2CCOCC2)cc(N2CCN(c3cnnc4c(Cl)cccc34)CC2)c1 | > 20 µM | > 20 µM | > 20 µM | > 20 µM | solubility kinetic at 16 h [1]: < 1 µM |
| COc1cc(OC)cc(N2CCN(c3cnnc4c(Cl)cccc34)CC2)c1 | 15.5 µM | 0.037 µM | 0.033 µM | 0.033 µM | remaining at 1 h, 100 µM [5]: 0.1%; t1/2 [7]: 2.1 min; microsomal intrinsic clearance [16]: 657.4 µL/min/mg |
| CN(C)CCOc1cc(Cl)cc(N2CCN(c3cnnc4c(Cl)cccc34)CC2)c1 | 16 µM | 4.72 µM | 6.49 µM | 7.02 µM | solubility kinetic at 16 h [1]: 131 µM (≈ 58.5 µg/mL) |
| COC(=O)CCOc1cc(Cl)cc(N2CCN(c3cnnc4c(Cl)cccc34)CC2)c1 | > 20 µM | 0.979 µM | 1 µM | 1.12 µM | remaining at 1 h, 100 µM [5]: 28.9%; t1/2 [7]: 35.5 min; microsomal intrinsic clearance [16]: 39 µL/min/mg; solubility kinetic at 16 h [1]: 82 µM (≈ 37.8 µg/mL) |
| Clc1cccc(N2CCN(c3ccnc4c(Cl)cccc34)CC2)c1 | > 20 µM | > 20 µM | > 20 µM | > 20 µM | Activity (Vimentin (Homo sapiens) [21]): inactive; Activity (Vimentin (Homo sapiens) [22]): inactive; Activity (Vimentin (Homo sapiens) [23]): inactive |
| O=C(O)CCOc1cc(Cl)cc(N2CCN(c3cnnc4c(Cl)cccc34)CC2)c1 | > 20 µM | 1.53 µM | 0.756 µM | 1.12 µM | solubility kinetic at 16 h [1]: > 200 µM |
| Clc1cccc(N2CCN(c3ncnc4ccccc34)CC2)c1 | > 20 µM | > 20 µM | > 20 µM | > 20 µM | – |
